Data as given in patent publication US8846393B2, “Methods of improving stem cell homing and engraftment” (Gamida-Cell Ltd., priority 2005, dated 2014).
Where “and” joins values, the source holds several entries; their conditions need not be identical. Equal values may be shown once.

Tested on: CD26/dipeptidylpeptidase IV
Test: FACS analysis of CD26 membranal expression on CD34+ cells after short-term incubation
Format: cell-based, human
Description: Cells were obtained from umbilical cord blood after normal full-term delivery (informed consent was given). Samples were collected and frozen according to Rubinstein et al. [Rubinstein et al. Proc Natl Acad Sci USA. 1995; 92 (22):10119-10122.] within 24 h postpartum. Prior to use, the cells were thawed in Dextran buffer (Sigma, St. Louis, Mo., USA) containing 2.5% human serum albumin (HAS, Bayer Corp. Elkhart, Ind., USA), layered on a Ficoll-Hypaque gradient (1.077 g/mL; Sigma), and centrifuged at 800×g for 30 min. The mononuclear cells in the interface layer were collected and washed three times in phosphate-buffered saline (PBS, Biological Industries) containing 0.5% HSA. To purify the CD34+ cells, the mononuclear cell fraction was subjected to two cycles of immunomagnetic bead separation, using a “MiniMACS CD34 progenitor cell isolation kit” (Miltenyi Biotec Bergisch, Gladbach, Germany), according to manufacturer's instructions. The purity of the CD34+ population thus obtained was 95-98%, as evaluated by flow cytometry. Percentages of progenitor cells positive for CD26 were determined by staining of CD34+ cells with anti-CD26 FITC purchased from Becton Dickinson. […] Freshly purified CD34+ cells were FACS analyzed for the expression of CD26 (T-0) then incubated±Nicotinamide 5 mM for 20 hours (T-20 hours) and FACS analyzed again.

NC(=O)c1cccnc1 [nicotinamide]
reduction of CD26 expression (20 hours with Nicotinamide 5 mM, compared to cells without Nicotinamide and to freshly purified CD34+ cells (T-0)): 2-3 fold
CD26+ cells (%) (freshly purified CD34+ cells incubated with Nicotinamide 5 mM for 20 hours (T-20)): 2.7% and 6%
